From PubChem BioAssay AID2060888 (Molecular Pharmacology Branch, DTP, NCI, 2025)

System: 695427-040-R-J1-PDC complex spheroid viability
Assay: Anticancer human tumor 695427-040-R-J1-PDC patient-derived colon adenocarcinoma cell line growth inhibition [RAS]
Conditions: for IC50: curve of first compound; for viability, T/C: stronger effect = lower value
Summary of the method: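 Multi-cell-type spheroids: tumor cells plus HUVEC endothelial cells and mesenchymal stem cells. RAS-pathway inhibitors were combined with targeted agents, each dosed in half-log steps down from clinical Cmax, or from 10 microM when Cmax was unknown.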
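Note: viability read after seven days of drug exposure.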
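Throughout, for viability, T/C: 100% = DMSO vehicle control viability.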

CC(=O)OC12COC1CC(O)C1(C)C(=O)C(O)C3=C(C)C(OC(=O)C(O)C(NC(=O)OC(C)(C)C)c4ccccc4)CC(O)(C(OC(=O)c4ccccc4)C21)C3(C)C (configuration not stated) + CCn1c(-c2cccnc2C(C)OC)c2c3cc(ccc31)N1CCOC(CC(NC(=O)C(C(C)C)N(C)C(=O)C3(F)CCN(C(=O)C#CC(C)(C)N(C)C)CC3)C(=O)N3CCCC(N3)C(=O)OCC(C)(C)C2)C1
IC50 (second compound 0.000949 µM): > 10 µM
IC50 (second compound 0.003 µM): > 10 µM
IC50 (second compound 0.00949 µM): > 10 µM
IC50 (second compound 0.03 µM): > 10 µM
IC50 (second compound 0.0949 µM): > 10 µM
IC50 (second compound 0.3 µM): > 10 µM
viability, T/C (second compound 0.000949 µM, first compound 0.0316 µM): 81%
viability, T/C (second compound 0.000949 µM, first compound 0.1 µM): 73.9%
viability, T/C (second compound 0.000949 µM, first compound 0.316 µM): 76%
viability, T/C (second compound 0.000949 µM, first compound 1 µM): 61.4%
viability, T/C (second compound 0.000949 µM, first compound 3.16 µM): 65.3%
viability, T/C (second compound 0.000949 µM, first compound 10 µM): 73.5%
viability, T/C (second compound 0.003 µM, first compound 0.0316 µM): 95.7%
viability, T/C (second compound 0.003 µM, first compound 0.1 µM): 77.1%
viability, T/C (second compound 0.003 µM, first compound 0.316 µM): 61.1%
viability, T/C (second compound 0.003 µM, first compound 1 µM): 64.1%
viability, T/C (second compound 0.003 µM, first compound 3.16 µM): 70.8%
viability, T/C (second compound 0.003 µM, first compound 10 µM): 66.9%
viability, T/C (second compound 0.00949 µM, first compound 0.0316 µM): 107%
viability, T/C (second compound 0.00949 µM, first compound 0.1 µM): 61%
viability, T/C (second compound 0.00949 µM, first compound 0.316 µM): 67.4%
viability, T/C (second compound 0.00949 µM, first compound 1 µM): 69.3%
viability, T/C (second compound 0.00949 µM, first compound 3.16 µM): 78.5%
viability, T/C (second compound 0.00949 µM, first compound 10 µM): 69%
viability, T/C (second compound 0.03 µM, first compound 0.0316 µM): 83.6%
viability, T/C (second compound 0.03 µM, first compound 0.1 µM): 71.9%
viability, T/C (second compound 0.03 µM, first compound 0.316 µM): 61%
viability, T/C (second compound 0.03 µM, first compound 1 µM): 68.4%
viability, T/C (second compound 0.03 µM, first compound 3.16 µM): 78.8%
viability, T/C (second compound 0.03 µM, first compound 10 µM): 77%
viability, T/C (second compound 0.0949 µM, first compound 0.0316 µM): 77.7%
viability, T/C (second compound 0.0949 µM, first compound 0.1 µM): 51.4%
viability, T/C (second compound 0.0949 µM, first compound 0.316 µM): 67.1%
viability, T/C (second compound 0.0949 µM, first compound 1 µM): 57.4%
viability, T/C (second compound 0.0949 µM, first compound 3.16 µM): 76%
viability, T/C (second compound 0.0949 µM, first compound 10 µM): 82.4%
viability, T/C (second compound 0.3 µM, first compound 0.0316 µM): 76.8%
viability, T/C (second compound 0.3 µM, first compound 0.1 µM): 60.1%
viability, T/C (second compound 0.3 µM, first compound 0.316 µM): 68.1%
viability, T/C (second compound 0.3 µM, first compound 1 µM): 51.7%
viability, T/C (second compound 0.3 µM, first compound 3.16 µM): 43.9%
viability, T/C (second compound 0.3 µM, first compound 10 µM): 71.1%
